This assay deals with T1, Glucocorticoid receptor (Homo sapiens, UniProt P04150).
T1 sequence (P04150 whole entry): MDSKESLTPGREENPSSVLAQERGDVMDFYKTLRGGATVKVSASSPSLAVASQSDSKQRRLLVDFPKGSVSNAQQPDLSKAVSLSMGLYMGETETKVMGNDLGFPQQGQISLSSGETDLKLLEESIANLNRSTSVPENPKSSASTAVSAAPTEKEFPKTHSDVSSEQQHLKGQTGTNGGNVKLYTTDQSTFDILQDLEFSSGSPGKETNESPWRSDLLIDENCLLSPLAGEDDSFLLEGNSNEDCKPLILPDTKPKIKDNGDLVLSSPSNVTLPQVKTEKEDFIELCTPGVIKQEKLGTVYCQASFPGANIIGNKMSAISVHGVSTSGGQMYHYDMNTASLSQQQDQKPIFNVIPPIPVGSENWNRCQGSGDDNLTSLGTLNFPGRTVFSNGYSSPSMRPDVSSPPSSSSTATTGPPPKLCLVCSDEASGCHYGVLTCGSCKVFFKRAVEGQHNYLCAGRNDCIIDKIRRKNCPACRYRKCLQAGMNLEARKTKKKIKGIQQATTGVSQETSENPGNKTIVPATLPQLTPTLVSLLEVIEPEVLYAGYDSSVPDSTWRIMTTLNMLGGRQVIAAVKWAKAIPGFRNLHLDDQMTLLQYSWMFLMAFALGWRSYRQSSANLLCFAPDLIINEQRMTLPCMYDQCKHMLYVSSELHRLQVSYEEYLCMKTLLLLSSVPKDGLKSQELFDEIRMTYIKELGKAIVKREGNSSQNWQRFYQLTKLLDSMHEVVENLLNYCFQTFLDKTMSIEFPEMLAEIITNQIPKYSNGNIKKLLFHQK
Briefly: Binding Activity of Compound of the Present Invention to Glucocorticoid Receptor GR. The method, then:
The binding activity of the compound to GR was determined using the Polarscreen Glucocorticoid Receptor Assay Kit, Red (brand: Thermo, Cat. No: A15898). […] The highest concentration was 100 μM, 8 concentrations in total.

`C[C@]12C=CC(=O)C=C1CC[C@@H]1[C@@H]2[C@@H](O)C[C@@]2(C)[C@H]1C[C@H]1O[C@@H](c3ccc(Cc4ccc5cc[nH]c5c4)cc3)O[C@]12C(=O)CO` [US20240307415, Compound 003] yielded an EC50 of 121 nM. That is a sub-micromolar value.
